Source: the METLIN SMRT retention time set (Domingo-Almenara et al. 2019)

Experiment: gradient 5% acetonitrile 3 min, to 50% in 2 min, to 85% in 15 min, held 3 min, 100 µL/min
Conditions: column: Zorbax Extend-C18 2.1 x 50 mm; eluents: water / acetonitrile, 0.1% formic acid
Method in brief: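 Pure standards were run in mixtures of ~100 molecules by HPLC coupled to a quadrupole time-of-flight mass spectrometer. The column was a Zorbax Extend-C18 (2.1 × 50 mm, 1.8 μm) at 100 μL/min, with water and acetonitrile each containing 0.1% formic acid, in positive and negative ionization mode. Dead and dwell volumes were 40 μL and 900 μL. Retention time was taken from computationally picked adduct peaks, each manually inspected, with data collected over 3 months.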

| Structure (SMILES) | RP-LC retention time [s] |
| --- | --- |
| COc1ccc(-c2noc(C3CCCN3C(=O)Nc3ccc(F)cc3F)n2)cc1 (stereo not given) | 963 |
| Cc1ccc(C(=O)NC2CCN(c3cc(-c4ccc(Cl)cc4)[nH]n3)C2)cc1 (stereo not given) | 821 |
| CCc1nc(-c2csc(S(=O)(=O)N3CCC(C(=O)NCC4CCCO4)CC3)c2)no1 (stereo not given) | 764 |
| CN1C(C(=O)Nc2ccccn2)=C(O)c2sc(Cl)cc2S1(=O)=O | 793 |
| CCn1nc(CNC(=O)C2CCCCC2)c2ccccc21 | 828 |
| COc1ccc(C(=O)N2CC(=O)Nc3ccc(F)cc3C2c2ccccc2)c(OC)c1 (stereo not given) | 854 |
| CN(C)C(=O)c1n[nH]c2c1CN(C(=O)c1cccc(C(F)(F)F)c1)CC2 | 673 |
| Fc1ccc(OCc2nnc3sc(-c4ccc(Cl)cc4)nn23)cc1 | 1030 |
| CCOC1CCN(C(=O)NC2CCCCC2)CC1 | 740 |
| CCC(C)NC(=O)N1CCN(Cc2nc3cc(C(=O)N(C)C)ccc3o2)CC1 (stereo not given) | 587 |
| CCn1c(=O)cc(SCC(=O)N2CCN(c3ccccn3)CC2)c2ccccc21 | 607 |
| CCOc1ccc(-c2csc(Cc3nc(-c4ccccc4Cl)no3)n2)cc1 | 1290 |
| O=C(Nc1ccc(S(=O)(=O)N2CCc3ccccc32)cc1)c1ccc(Br)o1 | 960 |
| O=C(Cn1nc2nc(N3CCCC3)ccn2c1=O)NCc1ccc(F)cc1Cl | 688 |
| COc1ccc(C2C(=O)N(CCc3ccccc3)CC(=O)N2Cc2cccs2)cc1 (stereo not given) | 964 |
| N#Cc1ccc(Cl)cc1NC(=O)c1cccn(Cc2cccc(C(F)(F)F)c2)c1=O | 1090 |
| CCCN1C(=O)C2CCC(=O)N2c2ccc(C(=O)NC(C)c3ccccc3)cc21 (stereo not given) | 801 |
| Cc1ncc2c(n1)C[C@@H]1CC[C@H]2N1C(=O)c1ccnn1C | 584 |
| COc1cc(OC)c(NC(=O)N2CCCC(C)(C(=O)NCc3ccc(F)cc3)C2)cc1Cl (stereo not given) | 916 |
| COc1ccc(-n2c(=O)n(C)c(=O)c3cc(C(=O)NCc4ccncc4)cnc32)cc1 | 596 |
| O=S(=O)(Nc1ccc2c(c1)OCCO2)c1ccc2nncn2c1 | 660 |
| O=C1CC(c2nc3ccccc3n2CCN2CCOCC2)CN1Cc1ccccc1 (stereo not given) | 597 |
| CC(=O)Nc1ccc(SCc2c(F)cccc2Cl)nn1 | 787 |

| Structure (SMILES) | RP-LC retention time [s] |
| --- | --- |
| Cc1ccc(C)c(NC(=O)CN2C(=O)CCCc3cc(S(=O)(=O)N4CCCC4)ccc32)c1 | 918 |
| O=C(O)CCC1CCN(S(=O)(=O)c2ccccc2)CC1 | 739 |
| Cc1c(Cl)cccc1Nc1c(-c2ccc(Cl)cc2)nc2ncccn12 | 992 |
| O=C(Nc1cccc(OCc2nnc(-c3ccccc3)o2)c1)c1ccccn1 | 954 |
| O=C(NC1CCCCCC1)c1nnc(-c2ccc(S(=O)(=O)N3CCCCC3)cc2)o1 | 1100 |
| Cc1ccc(-c2csc(Nc3ccc(Br)cn3)n2)cc1 | 1250 |
| COc1ccc(OC)c(NC(=O)N2CCN(c3ccc(=O)n(-c4ccc(C)cc4)n3)CC2)c1 | 835 |
| Cc1cc2c(c(=O)n(-c3ccc(F)cc3)c(=O)n2CC(=O)Nc2ccc(Br)cc2)n1C | 932 |
| Cc1ccc(NC(=O)Cn2cccc2-c2nnc(C3CCC3)o2)c(C)c1 | 963 |
| CCn1cc(-c2nc(CC(=O)NCc3ccccc3)cs2)c2cccnc21 | 840 |
| CCCn1nccc1-c1csc(S(=O)(=O)NC(C)(C)CC)c1 | 975 |
| CCc1ccc(C(C)NC(=O)C2CCN(c3cncnc3N3CCOCC3)CC2)cc1 (stereo not given) | 697 |
| CC(=O)N1c2ccc(S(=O)(=O)N3CCCCC3)cc2CC1C(=O)NCCc1ccc(C)cc1 (stereo not given) | 941 |
| Cc1cc(C)cc(NC(=O)N2CCN(CCn3c(-c4ccncc4)nc4cccnc43)CC2)c1 | 627 |
| O=c1ccn(-c2cccc(F)c2)nc1-c1nc(-c2ccc(F)c(Cl)c2)no1 | 984 |
| COc1ccc(-c2nc3ccc(C)cn3c2Nc2ccc(C)cc2)cc1 | 778 |
| COCCc1noc(C2CN(S(=O)(=O)Cc3ccccc3)C2)n1 | 780 |
| Cc1noc(C2CCCCN2Cc2cc(=O)n3ccccc3n2)n1 (stereo not given) | 608 |
| O=C(Cc1coc2ccc3ccccc3c12)NCc1ccco1 | 818 |
| Cc1cc(C)nc(N2CCN(c3ccc(F)cc3)CC2)n1 | 876 |
| O=C1Nc2ccccc2/C1=C\c1cnc[nH]1 | 617 |
| CCN1C=C(C(=O)OCc2c(C)noc2C)C(C)=NS1(=O)=O | 831 |
| Cc1cccc(CNC(=O)CN2CCN(Cc3ccc(F)cc3)C(=O)C2=O)c1 | 740 |

| Structure (SMILES) | RP-LC retention time [s] |
| --- | --- |
| CCOC(=O)c1c(C)[nH]c(C(=O)N2CCC(C(C)C(=O)NCc3ccc(C)cc3)CC2)c1C (stereo not given) | 846 |
| Cc1ccc(-c2noc(CSc3nc4cc5c(cc4c(=O)n3-c3ccc(F)cc3)OCO5)n2)cc1 | 1200 |
| N#Cc1ccc(C(=O)N2CCN(c3cc(-c4cccs4)[nH]n3)CC2)cc1 | 749 |
| COC(=O)c1ccc(N2C=C(C#N)S(=O)(=O)c3ccc(C)cc32)cc1 | 887 |
| CCN(CC)S(=O)(=O)c1ccc2c(c1)N(CC(=O)NCc1ccc(C)cc1)C(=O)C1CCCCN21 (stereo not given) | 1030 |
| N#Cc1nnn2c1nc(N)c1c(Cl)cccc12 | 817 |
| CC(=O)NCc1nc2ccccc2n1CC(=O)Nc1ccccc1 | 600 |
| CN1CCN(c2ccc(-c3nc(-c4ccccc4)no3)cn2)CC1 | 664 |
| CC(C)N1C(=O)C(C)(C(=O)Nc2ccc(F)c(Cl)c2)Oc2cccnc21 (stereo not given) | 1070 |
| O=C(Nc1ccccc1F)N1CCC(n2cnc3cc(Cl)ccc3c2=O)CC1 | 811 |
| Cc1ccc(OCC(=O)N2CCN(c3nc(CN4CCOCC4)cs3)CC2)cc1 | 640 |
| CS(=O)(=O)N1CCC(C(=O)NCC2(CO)CC2)CC1 | 536 |
| COc1cc(NS(=O)(=O)c2ccc(-c3nnc(C4CCC4)o3)o2)cc(OC)c1 | 886 |
| c1cc(-c2noc(-c3ccc4c(c3)OCO4)n2)cc(N2CCCC2)n1 | 690 |
| O=C(C1CC1)N1CCc2sc(S(=O)(=O)NCc3ccc(F)cc3)cc2C1 | 805 |
| O=C(NCc1ccccc1)C1CCN(S(=O)(=O)c2cc(C(=O)N3CCOCC3)cs2)CC1 | 694 |
| Cc1ccc(-c2csc(NC(=O)C(C)(C)C)n2)cc1 | 1080 |
| CC(C)c1nnc(-c2coc(S(=O)(=O)N3CCCCC3C)c2)o1 (stereo not given) | 904 |
| COc1ccc2[nH]cc(CCNC(=O)C3CCN(S(=O)(=O)c4ccc5c(ccn5C)c4)CC3)c2c1 | 851 |
| CCSc1ccccc1C(=O)NCCCn1cccc1 | 791 |
| COc1ccc(-c2noc(-c3nn(-c4ccc(C)cc4)ccc3=O)n2)cc1OC | 827 |
| O=C(Cn1cccc1-c1nnc(C2CCC2)o1)Nc1ccc(F)c(F)c1 | 945 |
| Cc1ccc(Sc2nccnc2N2CCC(C(=O)Nc3cccc(Br)c3)CC2)cc1 | 1260 |

| Structure (SMILES) | RP-LC retention time [s] |
| --- | --- |
| Cc1occc1C(=O)N[C@@H]1CN(c2ncccn2)C[C@H]1CO | 597 |
| Cc1nn(-c2nc(-c3ccc(F)cc3)cs2)c(C)c1CC(=O)N1CCc2ccccc2C1 | 1220 |
| CC(C)n1cnc2cc(CNC(=O)c3c(F)cccc3Cl)ccc21 | 617 |
| Cc1ccc(NC(=O)N2CCN(c3ccc(=O)n(-c4ccccc4)n3)CC2)cc1Cl | 708 |
| O=C(Nc1ccc2c(c1)C(=O)N1CCCCC1CCO2)c1ccc2nsnc2c1 (stereo not given) | 800 |
| CCS(=O)(=O)c1ccccc1C(=O)Nc1sc(-c2ccccc2)cc1C(N)=O | 814 |
| c1csc(CN2CCC(Oc3ccccc3-c3nc(-c4cnccn4)no3)C2)c1 (stereo not given) | 662 |
| Cc1cc(Nc2cc(CN3CCOCC3)c3nc(C)c(Cc4ccc(Cl)cc4F)n3n2)n[nH]1 | 712 |
| Cc1ccc(NC(=O)N2CCC(C(C)C(=O)Nc3cc(F)ccc3F)CC2)cc1 (stereo not given) | 653 |
| O=C(c1cccnc1N1CCNC(c2ccccc2)C1)N1CCSCC1 (stereo not given) | 606 |
| CC(=O)c1cccc(NC(=O)N2CCc3cc(-c4ccc(C(=O)N5CCOCC5)cc4)ccc32)c1 | 918 |
| CN(C)CCCNc1ncnc2c1cnn2-c1cccc(Cl)c1 | 653 |
| CC1=C(c2ccccc2)S(=O)(=O)N=C1N1CCCN(C(=O)c2cc(F)cc(F)c2)CC1 | 846 |
| CCOC(=O)c1[nH]c(C)c(CCC(=O)N2CCC(C(=O)NCCc3ccc(C)cc3)CC2)c1C | 843 |
| CCC(C)NC(=O)C1CCN(c2nc3cccnc3s2)CC1 (stereo not given) | 664 |
| CCOc1ccc(-c2cc(SCc3cccnc3)ncn2)cc1 | 690 |
| Cc1ccccc1CNC(=O)C1(C)CCCN(C(=O)NC2CCCCC2)C1 (stereo not given) | 904 |
| CSc1ccc(CNC(=O)CN2CCc3[nH]c4c(C)c(C)ccc4c(=O)c3C2)cc1 | 638 |
| COc1ccc(C(=O)N(CN2CCCC2=O)c2nccs2)cc1OC | 647 |
| Cc1cc(C(=O)N2CCCC2)c2cc(Br)ccc2n1 | 677 |
| O=C(Cn1ccnc1)N1CCC(OCc2nc(C3CC3)no2)CC1 | 582 |
